Data as given in patent publication US20260034135A1, “USE OF N6-BENZYLAMINOPURINE AS AN APPETITE SUPPRESSANT” (THE GOVERNING COUNCIL OF THE UNIVERSITY OF TORONTO, priority 2022, published 2026).

Key:
[1] = BAP in the drinking water in CD-1 mice: body weight and water intake; type: in vivo
Method: All protocols using mice were approved by the University Animal Care Committee of the University of Toronto and were performed in accordance with the Canadian Council on Animal Care. Animal experiments were performed in three separate animal facilities: Medical Sciences Building (MSB), Centre for Cellular and Biomolecular Research (CCBR) and the Biological Sciences Facility (BSF) due to ongoing construction and housing changes. Facilities and dates are indicated in each experimental cohort. N6-benzylaminopurine (BAP; also called N6-benzyladenine) was obtained from Sigma (B3408, cell culture grade in powder form; CAS number 1214-39-7). Male and female CD-1 mice aged 6-7 weeks were acquired from Charles Rivers and acclimated on a chow diet for one week prior to experimentation. Mice were then weight-matched and placed on either a 60% high fat diet (HFD) or sucrose-matched control diet for 4 weeks (from Research Diets: 60% HFD D12492 and the sucrose-matched control diet […]). After 3 weeks on the diet, mice were acclimated for one week to the drinking apparatus, a 50 mL canonical tube with a drinking tube. After 4 weeks on the diet, the mice were again weight-matched and randomly assigned to either the control or BAP group. […] The average dosages achieved using this method are as follows: male HFD (200 mg/kg/day), male control (157 mg/kg/day), female HFD (189 mg/kg/day), and female control (129.9 mg/kg/day). The mice were exposed continuously to the solutions for a total of 33 days. One week prior to the end of the experiment (day 28), the mice were fasted for 4 hr and underwent intraperitoneal insulin tolerance testing (ITT). After 33 days, the mice were sacrificed, and their tissues were collected. RNA was isolated from the collected hypothalamic and used to quantify gene expression via qRT-PCR.

[2] = Intraperitoneal glucose tolerance test (GTT); type: in vivo, CD-1 mice; details: male CD-1, HFD, cohort BSF
Method: […] The mice were then briefly fasted to determine the response to insulin or glucose. For the intraperitoneal glucose tolerance test, male mice were transferred to new clean cages and fasted for 6 hours prior to GTT. After 5 hours of fasting, the mice were weighed to determine their proper glucose dosage. The appropriate amount of 20% glucose solution was aliquoted for each mouse (2 g/kg). After 6 hours of fasting, the mice had their blood glucose measured via tail vein using a glucometer. This was recorded as the blood glucose at 0-minute timepoint. The mice were then intraperitoneal injected with their aliquoted glucose solution and returned to their cage. Blood glucose was measured via the tail vein 15, 30, 60, 90, and 120 minutes after glucose injection. Upon completion of GTT, the mice were returned to their cages with food and water and were closely monitored to ensure proper recovery.

[3] = BAP in a honey emulsion fed to CD-1 mice: body weight, food and water intake; type: in vivo
Excerpt: Male and female CD-1 mice were received at age 6-7 weeks and were acclimated on a chow diet for one week prior to experimentation. After acclimation to the facility, mice were switched to a 60% HFD. The male and female mice received HFD for 4 (male) and 5 or 16 (female) weeks prior to BAP exposure. The mice were then acclimated to the emulsion feeding protocol for 4 days prior to the start of BAP exposure using the method described in Kuster et al. (12). Two days prior to the start of the exposure period, a cohort of male mice underwent acute general anesthetic with isoflurane for baseline Bruker scanning to quantify peripheral fat mass. The mice were then weight-matched and randomly assigned to either the control or BAP group. During the exposure period, mice were restrained via scruffing (held at back of neck) and fed 200 μL of an emulsion containing 0.5% carboxymethyl cellulose and 50% honey with or without BAP at 2 hr prior to lights off at the facility daily.
[…] All mice were kept on the 60% HFD throughout the exposure period. […] On day 12, the one cohort of male mice underwent general anesthetic for the purpose of post-experiment Bruker scanning. The male mice were then fed their assigned emulsion 2 hr prior to sacrificing and tissue collection. […] Hypothalamic collected from the mice were then used to isolate RNA and quantify gene expression using quantitative reverse transcription polymerase chain reaction (qRT-PCR).

[4] = test system: B16 melanoma cells; details: protein kinase A-dependent manner; cited from earlier work
[5] = daily oral BAP emulsion, 27 days
[6] = male CD-1, 60% HFD, 300 mg/kg/day BAP emulsion, 11 days, cohort CCBR
[7] = male CD-1, 60% HFD, 300 mg/kg/day BAP emulsion, 14 days, cohort BSF
[8] = male CD-1, 60% HFD, 300 mg/kg/day BAP emulsion, 28 days, cohort BSF

Structure (SMILES): c1ccc(CNc2ncnc3nc[nH]c23)cc1 [BAP, N6-benzylaminopurine]
- initial body weight loss ([1]; female CD-1, 60% HFD, 10 mM BAP in drinking water (189 mg/kg/day), after 9 days of exposure): 9%
- body weight less than control group on same diet at end ([1]; female CD-1, 60% HFD, 10 mM BAP in drinking water, 33 days): 3 g
- initial body weight loss ([1]; female CD-1, sucrose-matched control diet, 10 mM BAP in drinking water (129.9 mg/kg/day), after 3 days, quickly regained): 5%
- body weight as percentage of starting weight vs vehicle control ([1]; female CD-1, sucrose-matched control diet, 10 mM BAP in drinking water, 33 days): not reduced
- peak body weight loss ([1]; male CD-1, 60% HFD, 10 mM BAP in drinking water (200 mg/kg/day), peak after 13 days of exposure): 18%
- body weight difference, control heavier than BAP group at end of experimental period ([1]; male CD-1, 60% HFD, 10 mM BAP in drinking water, 33 days): 11 grams
- peak body weight loss ([1]; male CD-1, sucrose-matched control diet, 10 mM BAP in drinking water (157 mg/kg/day), peak after 12 days): 9%
- body weight lighter than non-BAP control at end of experimental period ([1]; male CD-1, sucrose-matched control diet, 10 mM BAP in drinking water, 33 days): 4 g
- glucose uptake in a GTT ([2]; BAP emulsion 14 days): no change in glucose uptake
- fasting blood glucose vs HFD without BAP (GTT) [2, 5]: significantly lower
- glucose response in GTT [2, 5]: improved glucose response
- body weight gain on HFD ([3]; female CD-1, 16 weeks 60% HFD then 300 mg/kg/day BAP emulsion 36 days, cohort BSF): did not gain weight
- food intake vs control ([3]; female CD-1, 60% HFD, 300 mg/kg/day BAP emulsion 36 days, cohort BSF): did not eat significantly less HFD
- body weight change vs control ([3]; male CD-1, 60% HFD, 75 mg/kg/day BAP emulsion, 14 days): no change
- body weight gain on HFD ([3]; male CD-1, 60% HFD, 150 mg/kg/day BAP emulsion, 14 days, cohort BSF): did not gain weight
- body weight loss [3, 6]: 5%
- reduction in HFD food intake vs control group over the exposure period [3, 6]: 22%
- body weight loss [3, 7]: 1.3%
- daily average food intake vs control [3, 7]: did not eat significantly less HFD
- body weight loss ([3]; male CD-1, 60% HFD, 300 mg/kg/day BAP emulsion, 14 days, dose study, cohort BSF): 1.1%
- food intake ([3]; male CD-1, 60% HFD, 300 mg/kg/day BAP emulsion, 14 days, dose study, significant by unpaired t-test at 8 days onward): trend towards a decrease in food intake that did not reach significance
- body weight loss [3, 8]: 5%
- reduction in daily average food intake vs control [3, 8]: 13%
- cumulative daily food intake ([3]; male CD-1, 60% HFD, 75, 150, 300 mg/kg BAP emulsion, 14 days): do not have significant changes in food intake
- melanogenesis [4]: induce melanogenesis
